Results from US20250163104A1, “MACROCYCLIC IMMUNOMODULATORS” (priority 2021, published 2025).
Where a SMILES comes first, the peptide text is derived from it. Bridges are numbered along the chain shown (N, C = ends). [ ]: non-standard residue; d: D form. The star is where a group is joined. ξ: configuration not given here. Phe(4-COOH) = N[C@@H](Cc1ccc(C(=O)O)cc1)C(=O)O; Bip = N[C@@H](Cc1ccc(-c2ccccc2)cc1)C(=O)O; Phe(3-Me) = Cc1cccc(C[C@H](N)C(=O)O)c1; Phe(4-F) = N[C@@H](Cc1ccc(F)cc1)C(=O)O; Val(3-OH) = CC(C)(O)[C@H](N)C(=O)O; Aha = [N-]=[N+]=NCC[C@H](N)C(=O)O; 4Pal = N[C@@H](Cc1ccncc1)C(=O)O; 3Thi = N[C@@H](Cc1ccsc1)C(=O)O; Cha = N[C@@H](CC1CCCCC1)C(=O)O; Cit = NC(=O)NCCC[C@H](N)C(=O)O; Ile(3ξ) = CCC(C)[C@H](N)C(=O)O; Thr(3ξ) = CC(O)[C@H](N)C(=O)O; Chg = N[C@H](C(=O)O)C1CCCCC1; Dap(Me) = CNC[C@H](N)C(=O)O; ξIle = CC[C@H](C)C(N)C(=O)O; dDab = NCC[C@@H](N)C(=O)O; Carboxymethyl = O=C(O)C*; Nle = CCCC[C@H](N)C(=O)O; Orn = NCCC[C@H](N)C(=O)O; Pra = C#CC[C@H](N)C(=O)O; Dab = NCC[C@H](N)C(=O)O; Dap = NC[C@H](N)C(=O)O

These compounds were tested against T1, human PD-1 / PD-L1-Ig binding on Jurkat cell line over-expressing human PD-1 (Jurkat-PD-1) (Homo sapiens, UniProt Q15116) (assay: Jurkat-PD-1 Cell Binding High-Content Screening Assay (CBA)). Settings: Jurkat-PD-1 cells, PE-labeled PD-L1-Ig 20 nM final; read-out: Jurkat HPD1_PDL1 IC50.
T1 construct: expressed in transfected cells; host or cells: Jurkat
T1 sequence (Q15116 25-288): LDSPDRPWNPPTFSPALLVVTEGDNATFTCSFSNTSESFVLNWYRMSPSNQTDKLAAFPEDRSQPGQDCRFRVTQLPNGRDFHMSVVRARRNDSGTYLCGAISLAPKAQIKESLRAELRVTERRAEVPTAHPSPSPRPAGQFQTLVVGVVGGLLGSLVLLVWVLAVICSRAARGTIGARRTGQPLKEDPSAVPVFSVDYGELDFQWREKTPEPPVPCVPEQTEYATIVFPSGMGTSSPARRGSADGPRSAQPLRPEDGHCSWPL
Assay type: cell-based
Method in brief: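 Cell-bound PE-labeled PD-L1-Ig (20 nM final, 1 h) measured by high-content imaging after fixation and Hoechst 33342 counterstain. Compound was applied first for 2 h at 37° C. to Jurkat cells over-expressing human PD-1 in DMEM with 10% FCS.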

Structure (SMILES) | IC50 [nM]
CCNC(=O)[C@H](C)NC(=O)[C@@H]1CSCC(=O)N[C@@H](CN)C(=O)N[C@@H](Cc2ccc(OCC(=O)O)cc2)C(=O)N[C@@H](CC(=O)O)C(=O)N[C@@H](Cc2cccc(C)c2)C(=O)N[C@@H](C(C)C)C(=O)N[C@@H](Cc2ccc(-c3ccccc3)cc2)C(=O)N[C@@H](CCCNC(N)=O)C(=O)N[C@@H](CCCN)C(=O)N[C@H](CC(C)C)C(=O)N[C@@H](CCN)C(=O)N[C@@H](CC2CCCCC2)C(=O)N[C@@H](C(C)C)C(=O)N[C@@H](CN)C(=O)N1 [Compound 2015] ({CH2CO}-[Dap]Y(Carboxymethyl)D[Phe(3-Me)]V[Bip][Cit][Orn][dL][Dab][Cha]V[Dap]CA-NHEt; thioether N-14) | 10.5
CC(C)C[C@H]1NC(=O)[C@H](CCCN)NC(=O)[C@H](CCC(=O)O)NC(=O)[C@H](Cc2ccc(-c3ccccc3)cc2)NC(=O)[C@H](C(C)C)NC(=O)[C@H](Cc2cccc(Cl)c2)NC(=O)[C@H](CC(=O)O)NC(=O)[C@H](Cc2ccc(OCC(=O)O)cc2)NC(=O)[C@H](Cc2ccc(OCC(=O)O)cc2)NC(=O)CSC[C@@H](C(=O)N[C@@H](C)C(N)=O)NC(=O)[C@H]([C@@H](C)O)NC(=O)[C@H](C(C)C)NC(=O)[C@H](CC2CCCCC2)NC(=O)[C@H](CCN)NC1=O [Compound 1490] | 20.2
CCC(C)[C@@H]1NC(=O)[C@H](Cc2ccc(-c3ccccc3)cc2)NC(=O)[C@H](C(C)C)NC(=O)[C@H](Cc2c[nH]c3ccccc23)NC(=O)[C@H](CC(=O)O)NC(=O)[C@H](Cc2ccc(OCC(=O)O)cc2)NC(=O)[C@H](CNC)NC(=O)CSC[C@@H](C(=O)N[C@@H](C)C(N)=O)NC(=O)[C@H](C(C)O)NC(=O)[C@H](C(C)C)NC(=O)[C@H](CC(C)C)NC(=O)[C@H](CCN)NC(=O)[C@@H](CC(C)C)NC(=O)[C@H](CCCN)NC1=O (stereo partly drawn) [Compound 2512] ({CH2CO}-[Dap(Me)]Y(Carboxymethyl)DWV[Bip][Ile(3ξ)][Orn][dL][Dab]LV[Thr(3ξ)]CA-NH2; thioether N-14) | 10.8
CCC(C)[C@@H]1NC(=O)[C@H](Cc2ccc(-c3ccccc3)cc2)NC(=O)[C@H](C(C)C)NC(=O)[C@H](Cc2cccc(C)c2)NC(=O)[C@H](CC(=O)O)NC(=O)[C@H](Cc2ccc(-c3cccc(C(=O)O)c3)cc2)NC(=O)[C@H](CC(N)=O)NC(=O)CSC[C@@H](C(=O)N[C@@H](C)C(N)=O)NC(=O)[C@H]([C@@H](C)O)NC(=O)[C@H](C(C)C)NC(=O)[C@H](CC2CCCCC2)NC(=O)[C@H](CCN)NC(=O)[C@@H](CC(C)C)NC(=O)[C@H](CCCN)NC1=O (stereo partly drawn) [Compound 2222] | 25
C#CC[C@H](NC(=O)[C@@H]1CSCC(=O)N[C@@H](CN)C(=O)N[C@@H](CCN=[N+]=[N-])C(=O)N[C@@H](CC(=O)O)C(=O)N[C@@H](Cc2c[nH]c3ccccc23)C(=O)N[C@@H](C(C)C)C(=O)N[C@@H](Cc2ccc(-c3ccccc3)cc2)C(=O)N[C@@H](CCC(=O)O)C(=O)N[C@@H](CCCN)C(=O)N[C@H](CC(C)C)C(=O)N[C@@H](CCN)C(=O)N[C@@H](CC2CCCCC2)C(=O)N[C@@H](C(C)C)C(=O)N[C@@H]([C@@H](C)O)C(=O)N1)C(N)=O [Compound 1540] ({CH2CO}-[Dap][Aha]DWV[Bip]E[Orn][dL][Dab][Cha]VTC[Pra]-NH2; thioether N-14) | 87.4
CC(C)C[C@@H]1NC(=O)[C@H](Cc2c[nH]c3ccccc23)NC(=O)[C@H](CC(=O)O)NC(=O)[C@H](Cc2ccc(O)cc2)NC(=O)[C@H](Cc2ccccc2)NC(=O)CSC[C@@H](C(=O)NCC(N)=O)NC(=O)[C@H](CO)NC(=O)[C@H](C(C)C)NC(=O)[C@H](CC(C)C)NC(=O)[C@H](CCN)NC(=O)[C@@H](C)NC(=O)[C@H](CCN)NC(=O)[C@H](C(C)C)NC(=O)[C@H](Cc2ccc(-c3ccccc3)cc2)NC1=O [Compound 1106] ({CH2CO}-FYDWL[Bip]V[Dab][dA][Dab]LVSCG-NH2; thioether N-14) | 66.7

Further compounds by falling IC50, results first:

IC50 [nM] | Structure (SMILES)
37.6 | CC(C)C[C@H]1NC(=O)[C@H](CCCN)NC(=O)[C@H](CCC(=O)O)NC(=O)[C@H](Cc2ccc(-c3ccccc3)cc2)NC(=O)[C@H](C2CCCCC2)NC(=O)[C@H](Cc2c[nH]c3ccccc23)NC(=O)[C@H](CC(=O)O)NC(=O)[C@H](Cc2ccc(OCC(=O)O)cc2)NC(=O)[C@H](CN)NC(=O)CSC[C@@H](C(=O)N[C@@H](C)C(N)=O)NC(=O)[C@H]([C@@H](C)O)NC(=O)[C@H](C(C)C)NC(=O)[C@H](CC2CCCCC2)NC(=O)[C@H](CCN)NC1=O [Compound 1714] ({CH2CO}-[Dap]Y(Carboxymethyl)DW[Chg][Bip]E[Orn][dL][Dab][Cha]VTCA-NH2; thioether N-14)
26.7 | CC[C@H](C)C1NC(=O)[C@H](Cc2ccc(-c3ccccc3)cc2)NC(=O)[C@H](C(C)C)NC(=O)[C@H](Cc2c[nH]c3ccccc23)NC(=O)[C@H](CC(N)=O)NC(=O)[C@H](Cc2ccc(O)cc2)NC(=O)[C@H](CN)NC(=O)CSC[C@@H](C(=O)N[C@@H](C)C(N)=O)NC(=O)[C@H]([C@@H](C)O)NC(=O)[C@H](C(C)C)NC(=O)[C@H](CC(C)C)NC(=O)[C@H](CCN)NC(=O)[C@@H](CC(C)C)NC(=O)[C@H](CN)NC1=O (stereo partly drawn) [Compound 1089] ({CH2CO}-[Dap]YNWV[Bip][ξIle][Dap][dL][Dab]LVTCA-NH2; thioether N-14)
16.7 | CC[C@H](C)[C@@H]1NC(=O)[C@H](Cc2c[nH]c3ccccc23)NC(=O)[C@H](CC(=O)O)NC(=O)[C@H](Cc2ccc(OCC(=O)O)cc2)NC(=O)[C@H](CN)NC(=O)CSC[C@@H](C(=O)N[C@@H](C)C(N)=O)NC(=O)[C@H]([C@@H](C)O)NC(=O)[C@H](C(C)C)NC(=O)[C@H](CC2CCCCC2)NC(=O)[C@H](CCN)NC(=O)[C@@H](CC(C)C)NC(=O)[C@H](CCCN)NC(=O)[C@H](C(C)C)NC(=O)[C@H](Cc2ccc(-c3ccccc3)cc2)NC1=O [Compound 1733] ({CH2CO}-[Dap]Y(Carboxymethyl)DWI[Bip]V[Orn][dL][Dab][Cha]VTCA-NH2; thioether N-14)
10.9 | Cc1cccc(C[C@@H]2NC(=O)[C@H](CC(=O)O)NC(=O)[C@H](Cc3ccc(C(=O)O)cc3)NC(=O)[C@H](Cc3ccncc3)NC(=O)CSC[C@@H](C(N)=O)NC(=O)[C@H]([C@@H](C)O)NC(=O)[C@H](C(C)C)NC(=O)[C@H](CC3CCCCC3)NC(=O)[C@H](CCN)NC(=O)[C@@H](CC(C)C)NC(=O)[C@H](CCCN)NC(=O)[C@H](CCCNC(N)=O)NC(=O)[C@H](Cc3ccc(-c4ccccc4)cc3)NC(=O)[C@H](C(C)C)NC2=O)c1 [Compound 1549] ({CH2CO}-[4Pal][Phe(4-COOH)]D[Phe(3-Me)]V[Bip][Cit][Orn][dL][Dab][Cha]VTC-NH2; thioether N-14)
8.5 | Cc1cccc(C[C@@H]2NC(=O)[C@H](CC(=O)O)NC(=O)[C@H](Cc3ccc(OCC(=O)O)cc3)NC(=O)[C@H](Cc3ccc(F)cc3)NC(=O)CSC[C@@H](C(=O)N[C@H](CCN)C(N)=O)NC(=O)[C@H](CCC(=O)O)NC(=O)[C@H](C(C)(C)O)NC(=O)[C@H](CC3CCCCC3)NC(=O)[C@H](CCN)NC(=O)[C@@H](CC(C)C)NC(=O)[C@H](CCCN)NC(=O)[C@H](Cc3ccc(OCC(=O)O)cc3)NC(=O)[C@H](Cc3ccc(-c4ccccc4)cc3)NC(=O)[C@H](Cc3ccc(OCC(=O)O)cc3)NC2=O)c1 [Compound 2676] ({CH2CO}-[Phe(4-F)]Y(Carboxymethyl)D[Phe(3-Me)]Y(Carboxymethyl)[Bip]Y(Carboxymethyl)[Orn][dL][Dab][Cha][Val(3-OH)]EC[dDab]-NH2; thioether N-14)
7 | CC(C)C[C@H]1NC(=O)[C@H](CCN)NC(=O)[C@H](C(C)C)NC(=O)[C@H](Cc2ccc(-c3ccccc3)cc2)NC(=O)[C@H](C(C)C)NC(=O)[C@H](Cc2c[nH]c3ccccc23)NC(=O)[C@H](CC(=O)O)NC(=O)[C@H](Cc2ccc(OCC(=O)O)cc2)NC(=O)[C@H](Cc2ccsc2)NC(=O)CSC[C@@H](C(N)=O)NC(=O)[C@H](CCCCN)NC(=O)[C@H](C(C)C)NC(=O)[C@H](CC2CCCCC2)NC(=O)[C@H](CCN)NC1=O [Compound 2614] ({CH2CO}-[3Thi]Y(Carboxymethyl)DWV[Bip]V[Dab][dL][Dab][Cha]VKC-NH2; thioether N-14)
6.8 | CCCC[C@@H]1NC(=O)[C@H](CCN)NC(=O)[C@@H](CC(C)C)NC(=O)[C@H](CCCN)NC(=O)[C@H](CCCNC(N)=O)NC(=O)[C@H](Cc2ccc(-c3ccccc3)cc2)NC(=O)[C@H](C(C)C)NC(=O)[C@H](Cc2cccc(C)c2)NC(=O)[C@H](CC(=O)O)NC(=O)[C@H](Cc2ccc(OCC(=O)O)cc2)NC(=O)[C@H](CN)NC(=O)CSC[C@@H](C(=O)N[C@@H](C)C(N)=O)NC(=O)[C@H]([C@@H](C)O)NC(=O)[C@H](C(C)C)NC1=O [Compound 1207] ({CH2CO}-[Dap]Y(Carboxymethyl)D[Phe(3-Me)]V[Bip][Cit][Orn][dL][Dab][Nle]VTCA-NH2; thioether N-14)
5.4 | CC(C)C[C@H]1NC(=O)[C@H](CCCN)NC(=O)[C@H](C(C)C)NC(=O)[C@H](Cc2ccc(-c3ccccc3)cc2)NC(=O)[C@H](C(C)C)NC(=O)[C@H](Cc2c[nH]c3ccccc23)NC(=O)[C@H](CC(=O)O)NC(=O)[C@H](Cc2ccc(OCC(=O)O)cc2)NC(=O)[C@H](CCO)NC(=O)CSC[C@@H](C(=O)N[C@@H](C)C(N)=O)NC(=O)[C@H](C(C)O)NC(=O)[C@H](C(C)C)NC(=O)[C@H](CC2CCCCC2)NC(=O)[C@H](CCN)NC1=O (stereo partly drawn) [Compound 2514]
4.9 | COC[C@@H]1NC(=O)CSC[C@@H](C(=O)N[C@@H](CCN)C(N)=O)NC(=O)[C@H](CO)NC(=O)[C@H](C(C)(C)O)NC(=O)[C@H](CC2CCCCC2)NC(=O)[C@H](CCN)NC(=O)[C@@H](CC(C)C)NC(=O)[C@H](CCCN)NC(=O)[C@H](Cc2ccc(OCC(=O)O)cc2)NC(=O)[C@H](Cc2ccc(-c3ccccc3)cc2)NC(=O)[C@H](Cc2ccc(OCC(=O)O)cc2)NC(=O)[C@H](Cc2cccc(C)c2)NC(=O)[C@H](CC(=O)O)NC(=O)[C@H](Cc2ccc(C(=O)O)cc2)NC1=O [Compound 2078] ({CH2CO}-S(Me)[Phe(4-COOH)]D[Phe(3-Me)]Y(Carboxymethyl)[Bip]Y(Carboxymethyl)[Orn][dL][Dab][Cha][Val(3-OH)]SC[Dab]-NH2; thioether N-14)
